# Assay results reported in patent US20050259249A1, “Nonlinear optical detection of fast cellular electrical activity” (priority 2004, published 2005).
# “Also recorded” adds a separate entry of the source. Counter-ions that a name gives are not always drawn.
# Columns and labels:
# mossy fibers = assay: Pharmacology: SHG from mossy fibers of acute hippocampal slices after cytoskeleton-depolymerizing drugs; assay type: cell-based, rat; conditions: for Effect on SHG from mossy fibers compared to the control: cytochalasin D 1 μM or nocodazole 25 μM, solvent control
# Description: SHG and TPF microscopy were simultaneously performed on either a Bio-Rad MRC 1024 or Radiance scan head on a modified inverted Olympus IX-70 microscope (FIG. 1). The excitation source was a mode-locked Ti:Sapphire laser (˜100 fs pulses at 80 MHz) (Spectra-Physics) pumped by a 5 W solid state Millennia laser (Spectra-Physics). The laser polarization was controlled via a Berek polarization compensator (New Focus, San Jose, Calif.) and the beam focused into the sample with one of the following (overfilled back aperture) objectives: Zeiss C-Apochromat 10×/0.45 NA, Olympus UApo 20×/0.7 NA, Zeiss Fluar 20×/0.75 NA, Olympus UApo 40×/1.15 NA, Zeiss Fluar 40×/1.3 NA. The resultant SHG was collected in the transmitted (forward) direction with an Olympus XLUMPlanFl 20×/0.95 NA objective, while the TPF was epi-collected through the excitation objective. A combination of dichroic mirrors, band-pass and blue-glass filters (Chroma Technology, Brattleboro, Vt.) and polarization analyzers (Newport) separated the signals for detection with Bialkali photo-multiplier tubes (PMTs) (Hammamatsu). The excitation wavelength, average excitation intensity (<I>) at the sample, and two-photon 1/e radial Gaussian beam waist approximation (w) (Richards et al., Proc Royal Soc London Series A-Mathematical Physical Sciences 253:358-379 (1959), which is hereby incorporated by reference in its entirety) are given with the figures. The average power at the sample is (<I>·π·w^2). The images are temporally summed over several scans at dwell times ˜10-100 μs/μm^2. Confocal imaging was performed on the same microscope, but using an argon-krypton laser for excitation. […]
# The slices were transferred from the static incubation bath to a static ASCF bath on the microscope stage. […] The average intensities from the three groups were calculated and compared for statistical significance with a T-test.
# cultured Aplysia neurons = assay: SHG line scan recording of Vm in dye-stained cultured Aplysia neurons under voltage clamp; assay type: cell-based, Aplysia californica; conditions: 8 μM dye extracellular perfusion, 940 nm excitation, two-electrode voltage clamp
# Protocol: Abdominal and cerebral ganglia from up to 15 different 5-10 g Aplysia californica were dissociated and cultured with like ganglia (i.e., abdominal with abdominal, cerebral with cerebral) according to Banker and Goslin (i.e., Banker et al., Culturing Nerve Cells, 2nd Edition, Cambridge, Mass.: MIT Press (1998), which is hereby incorporated by reference in its entirety). The cultures were grown in MatTek glass bottom dishes (MatTek Corp., Ashland, Mass.) at 17-18 C. For recordings, 4 to 14 day old cultures were used.
# For staining and imaging, 4-[[4-(dihexylamino)phenyl]]ethynyl]-1-(4-sulfobutyl)pyridinium, inner salt (“DHPESBP”) (“Molecule B” from Moreaux et al., “Electro-Optic Response of Second-Harmonic Generation Membrane Potential Sensors,” Optics Letters 28:625-627 (2003), which is hereby incorporated by reference in its entirety) was used, because of its proven fast (<150 μs) response to Vm. SHG from giant unilamellar vesicles stained with this molecule was sensitive to Vm on fast time scales through an electrochromic (rather than reorientational) mechanism (Moreaux et al., “Electro-Optic Response of Second-Harmonic Generation Membrane Potential Sensors,” Optics Letters 28:625-627 (2003), which is hereby incorporated by reference in its entirety). […]
# [1] = electrochromic mechanism; from Moreaux et al., Optics Letters 28:625-627 (2003); cited from earlier work
# [2] = test system: neurons in the hippocampal region; assay: SHG line scan recording of membrane potential in dye-filled neurons of acute brain slices; assay type: cell-based, rat; conditions: neurons filled with dye via patch pipette, ~1060 nm/~300 fs laser pulses, voltage steps at the soma
# Description: SHG microscopy is emerging as a powerful new method to optically record membrane potential changes of active neurons. […] This technique has been applied to acute rat brain slices by patch clamping and filling neurons in the hippocampal region with the dye FM4-64. […] The SHG signal emanates from the plasma membrane with little background from intra- or extracellular regions. […] Additionally, it has been shown that a backward propagating SHG signal exists (Forward/Backward ratio ˜6).
# Repeated line scanning of the SHG signal was used to optically record action potentials (signal to noise ratio (S/N) ˜5-8 by temporal averaging of ˜50 line scans) on somatic membranes. Voltage steps were applied at the soma and the SHG response was recorded in the dendritic arbor >100 μm deep in slice. Dendritic spines were clearly visible, possibly making the recording of membrane potential transients from these compartments feasible. […] The line scan averaging necessary to increase S/N was accomplished in minutes. […] In addition to patch clamping, it was shown that extracellular micropipette pressure injection of the dye into hippocampal cell layers leads to SHG labeling of many tens of neurons.
compound,measurement,setting,value
C=C1[C@@H](C)[C@H]2[C@H](Cc3ccccc3)NC(=O)[C@]23[C@H](OC(C)=O)/C=C/[C@@](C)(O)C(=O)[C@@H](C)C/C=C/[C@H]3[C@@H]1O [Cytochalasin D],Effect on SHG from mossy fibers compared to the control,mossy fibers,did not affect the SHG; also recorded: no significant effect
"CCCCCCN(CCCCCC)c1ccc(C#Cc2cc[n+](CCCCS(=O)(=O)[O-])cc2)cc1 [DHPESBP, 4-[[4-(dihexylamino)phenyl]ethynyl]-1-(4-sulfobutyl)pyridinium, inner salt]",SHG signal change as a function of change in membrane potential (linear response),cultured Aplysia neurons,~6 %/100 mV
same,Response time of SHG to Vm,[1],< 150 μs
"CCN(CC)c1ccc(C=CC=CC=Cc2cc[n+](CCC[N+](CC)(CC)CC)cc2)cc1.[Br-].[Br-] [FM4-64, N-(3-triethylammoniumpropyl)-4-(6-(4-(diethylamino)phenyl)hexatrienyl)pyridinium dibromide]",SHG signal linear response to membrane potential,[2],~7.7 %/100 mV
"COC(=O)Nc1nc2ccc(C(=O)c3cccs3)cc2[nH]1 [nocodazole, Nocodazole]","SHG from the mossy fibers after addition of the drug, relative to its original value","mossy fibers; continuous treatment, nocodazole 25 μM, imaged for 70 min, 34° C., 4 slices",~39%
same,Effect on SHG from mossy fibers compared to the control,mossy fibers,drastic
